Measured values taken from patent publication US11964951B2, “Process of making derivatives of substituted morpholines” (Supernus Pharmaceuticals, Inc., priority 2022, dated 2024).

Assays:
[1] = relative to the (R)-(+)-isomer; J. Med. Chem. 1976, 19(8), 1074; cited from earlier work
[2] = chemical stability on standing / by HPLC during work-up; format: physicochemical; conditions: kept at room temperature overnight
Description: The process was repeated. The mother liquor materials were combined. A 15-g portion of the mother liquor material (a syrupy liquid) was subjected to a water-acid-base extraction by dissolving the mother liquor in 50 mL of ethyl acetate and washing with water then with 1N HCl (2×). The ethyl acetate layer contained 2-((2-ethoxyphenoxy)methyl)morpholine, unreacted BOC compound 5, and a trace of the desired compound. The HCl solution was mainly the desired amine 6 HCl salt plus some 2-((2-ethoxyphenoxy)methyl)morpholine and a minor impurity. This solution was made alkaline with sodium bicarbonate, extracted with dichloromethane (3×) washed with brine, and dried over magnesium sulfate. […] The material was kept at room temperature overnight whereupon it decomposed.
The ethyl acetate solution of the free base was treated with a solution of 150 mg of maleic acid in 2 mL of isopropanol. […] The material was dissolved in dichloromethane, washed with water, and evaporated to give 374 mg of the maleate as an oil.

| stability of the isolated material [2] | Structure (SMILES) | pharmacological activity as compared to the (R)-(+)-isomer [1] |
| --- | --- | --- |
| – | CCOc1ccccc1OC[C@@H]1CNCCO1 [(S)-enantiomer, (S)-2-((2-ethoxyphenoxy)methyl)morpholine] | five times |
| decomposed | CCOc1ccccc1OC[C@@H]1CN(C(=O)OC(C)OC(=O)[C@@H](N)C(C)C)CCO1.Cl (mixture of isomers) [Compound 6, 1-[(S)-2-Amino-3-methylbutyroxy]ethyl (S)-2-[(o-ethoxyphenoxy)methyl]-4-morpholinecarboxylate, hydrochloride] | – |
